From US10907168B2, “Jasmonic acid pathway activator” (MEDICAGO INC., priority 2015, dated 2021) come the findings set out here.

In the test the test system is C5-1 antibody. As to the kind of experiment: C5-1 antibody quantification by ELISA in agroinfiltrated leaves. Type of test: in vivo, Nicotiana benthamiana. Particulars: ELISA; 1 mM, leaves treated 24 h before infiltration. On the procedure:
Forty-two day-old N. benthamiana plants grown in greenhouse were used for the experiments. Each plant was sprayed evenly with 50 ml of 0.5 mM, 1 mM or 2 mM MeJA in water containing 0.1% (v/v) Triton X-100 (Sigma-Aldrich, Mississauga ON, Canada), or with 50 ml of 1 mM arachidonic acid (Girard et al., 2007) in the same solvent, and transferred for seven days in a Conviron growth chamber (Conviron, Winnipeg MB, Canada). Plants sprayed with 50 ml of 0.1% (v/v) Triton X-100 in water were used in parallel as negative controls to avoid confounding effects due to experimental conditions. Two or three 1-cm^2 leaf discs were harvested from the third main stem leaf (see Robert et al., 2013) after seven days, as source material for protein and RNA extraction. The leaf samples were frozen immediately in liquid nitrogen and stored at −80° C. until protein or RNA extraction. Three to five biological (plant) replicates were used for each treatment, to allow for statistical treatment of the data. Two gene vectors were used for the agroinfiltration assays: an engineered pcambia2300 vector encoding the light and heavy chains of C5-1 fused to an N-terminal signal peptide sequence for cellular secretion (see Goulet et al., 2012 for details on gene construct); and the original (“empty”) pcambia2300 binary vector (CAMBIA, Canberra, Australia) as a control for agroinfection. The two binary vectors were electroporated into A. tumefaciens strain LBA4404 and the cultures were maintained in Luria-Bertani (LB) medium supplemented with 50 μg/ml kanamycin and 50 μg/ml rifampicin. For infiltration, bacteria were grown to stable phase at 28° C. to an OD600 of 1.0 and collected by centrifugation at 2,000 g. The bacterial pellets were resuspended in 10 mM 2-[N-morpholino] ethanesulfonic acid] (MES) buffer, pH 5.8, containing 100 μM acetosyringone and 10 mM MgCl2. Leaf infiltration was performed using a needle-less syringe as described earlier (D'Aoust et al., 2009), after mixing the C5-1 antibody (or empty vector) agrobacterial suspension with an equal volume of bacterial suspension carrying a binary vector for the protein silencing suppressor p19 (Voinnet et al., 2003). Infiltrated tissue for molecular characterization was collected six days post-infection (i.e. seven days post-MeJA or arachidonate treatment), unless otherwise indicated. Three to five biological (plant) replicates were used for each treatment to allow for statistical analyses. ELISA plates for C5-1 antibody quantification (Becton Dickinson, Mississauga ON, Canada) were coated with 3.75 μg/ml goat anti-mouse heavy chain-specific IgG1 (Sigma-Aldrich) in 50 mM carbonate buffer (pH 9.0) at 4° C. for 16-18 h. The plates were washed three times in 10 mM phosphate-buffered saline containing 0.1% (v/v) Tween 20 (PBS-T), blocked through a 1-h incubation at 37° C. in 1% (w/v) casein in phosphate-buffered saline (PBS) (Pierce, Rockford Ill., USA), and washed three times in PBS-T. A standard curve was generated for each plate with 0, 4, 8, 16, 24, 32, 40 and 60 ng/ml of purified mouse IgG1 (Sigma-Aldrich). All dilutions (controls and samples) were performed in a control extract obtained from leaf tissue infiltrated with a mock inoculum so that any matrix effect was eliminated. The plates were incubated with protein samples for 1 h at 37° C., washed three times in PBS-T and then incubated with peroxidase-conjugated goat anti-mouse IgG (H+L) antibodies (0.02 μg/ml in blocking solution) (Jackson ImmunoResearch) for 1 h at 37° C. After additional washes with PBS-T, the plates were incubated with the 3,3′,5,5′-tetramethylbenzidine Sure Blue peroxidase substrate (KPL, Gaithersburg Md., USA). The reaction was stopped by the addition of 1 N HCl and the absorbance was read at 450 nm. Three independent (biological) replicates were used for each assay.

As for `CCCCC/C=C\C/C=C\C/C=C\C/C=C\CCCC(=O)O` [arachidonic acid], the C5-1 yield change result is listed as “No yield increase”.
